In US7112581B2, “Macrocyclic lactams” (Nereus Pharmaceuticals, Inc., priority 2002, dated 2006):
Several values for one entry are separate records, joined by “and”; a condition that tells them apart may be missing. Identical values can stand only once. Like-named read-outs stand apart in the source and are kept apart here.

Key:
[1] = test system: HT-29 (ATCC HTB-38) human colorectal adenocarcinoma; experiment: tumor cytotoxicity assay (resazurin), HT-29; assay type: cell-based; conditions: HT-29, 48 h
Description: HT-29 (ATCC HTB-38) a human colorectal adenocarcinoma was maintained in McCoy's complete medium (McCoy's 5A medium with L-glutamine and 25 mM HEPES supplemented with 10% FBS, 1 mM Na pyruvate, 1X NEAA, 2 mM L-glutamine, and Pen/Strep at 100 IU/ml and 100 μg/ml, respectively). Cell lines were cultured at 37° C., 5% CO2 in a 95% humidified incubator. For tumor cytotoxicity assays HT-29, PC-3, or B16-F10 cells were seeded at 5×10^3, 5×10^3 or 1.25×10^3 cells/well cells were seeded at 5,000 cells/well in 90 μl complete media into a Corning 3904 black-walled, clear-bottom tissue culture plate and the plate were incubated overnight to allow cells to establish and enter log phase growth. Jurkat cells were seeded on the day of compound addition at 2×10^4 cells/well in 90 μl complete media into a Corning 3904 black-walled, clear-bottom tissue culture plate. 20 mM stock solutions of the compound of Formula (I) were prepared in 100% DMSO and stored at −20° C. 10×concentrated serial dilutions of the compounds were prepared in appropriate culture medium for final concentrations ranging from 2×10–5 to 2×10–12. Ten μl volumes of the 10×serial dilutions were added to the test wells in triplicate and the plates returned to the incubator for 48 hours. The final concentration of DMSO was 0.25% in all samples. […] Because living cells metabolize Resazurin, the fluorescence of the reduction product of Resazurin was measured using a Fusion microplate fluorometer (Packard Bioscience) with λex=535 nm and λem=590 nm filters. The plates were removed and resazurin fluorescence was measured using 530 nm excitation and 590 nm emission filters in a Fusion fluorimeter (Packard Instruments). […] The data were analyzed using Prism software (GraphPad Software). The data were normalized to the average of the cells treated with media only (100% cell growth) and EC50 values were determined using a standard sigmoidal dose response curve fitting algorithm.

solubility (observation) = assay type: physicochemical
[2] = test system: Pseudomonas aeruginosa ATCC 614000; experiment: antimicrobial resazurin growth assay, P. aeruginosa; assay type: cell-based; conditions: ATCC614000, 37° C., 4 to 6 hours
Description: (§1) The biological characteristics of compound of Formula (I) were evaluated in Escherichia coli ATCC 610100, Pseudomonas aeruginosa ATCC 614000, Haemophilus influenzae A21515, Staphylococcus aureus, methicillin resistant (MRSA) ATCC 605000, Enterococcus faecalis ATCC 662000, Streptococcus pneumoniae ATCC 661100 and Candida glabrata ATCC 200918. All cultures were maintained in Brain Heart Infusion Medium (Oxoid), except C. glabrata, which was maintained in Potato Dextrose Broth (Difco).
(§2) For antimicrobial assays of E. coli, P. aeruginosa, H. influenzae, MRSA, E. faecalis and S. pneumoniae, the cells in Brain Heart Infusion Medium were added to 96 well plates at a volume of 176 μl/well. The compound to be tested was added to the wells (20 μl/well) together with 10 μl of 0.2 mg/ml resazurin (Sigma). The plates were incubated at 37° C. for 4 to 6 hours. The growth of the cultures was monitored by measuring the fluorescence of the plates using a fluorometer with λex=535 nm and λem=590 nm filters. Resazurin dye without cells was used to determine the background, which was subtracted from the data for all experimental wells. The data were analyzed using Prism software (GraphPad Software). The data were normalized to the average of the cells treated with media only (100% cell growth) and the IC50 values were determined using a standard sigmoidal dose response curve fitting algorithm.

Candida albicans 90028 = experiment: susceptibility assay by broth microdilution (NCCLS), C. albicans; assay type: cell-based
Description: (§3) The anti-infective potential of the compound was re-evaluated in susceptibility assays performed by broth microdilution in accordance with National Committee for Clinical Laboratory Standards (NCCLS) guidelines, M7-A5, January 2000. The compound was tested versus the following microorganisms: Staphylococcus aureus (MSSA), Staphylococcus aureus (MRSA), Streptococcus pneumoniae, vancomycin-sensitive Enterococcus faecalis, Haemophilus influenzae, Pseudomonas aeruginosa and Candida albicans.

[3] = test system: Enterococcus faecalis ATCC 662000; experiment: antimicrobial resazurin growth assay, E. faecalis; assay type: cell-based; conditions: ATCC662000, 37° C., 4 to 6 hours
Description: as §1, §2

[4] = test system: Haemophilus influenzae 49766; experiment: susceptibility assay by broth microdilution (NCCLS), H. influenzae; assay type: cell-based
Description: as §3

[5] = test system: Pseudomonas aeruginosa 27853; experiment: susceptibility assay by broth microdilution (NCCLS), P. aeruginosa; assay type: cell-based; conditions: Pseudomona aeruginosa 27853
Description: as §3

Escherichia coli imp = experiment: susceptibility assay by broth microdilution (NCCLS), E. coli; assay type: cell-based
[6] = test system: Escherichia coli ATCC 610100; experiment: antimicrobial resazurin growth assay, E. coli; assay type: cell-based; conditions: ATCC610100, 37° C., 4 to 6 hours
Description: as §1, §2

[7] = test system: B16-F10 (ATCC CRL-6475) mouse melanoma; experiment: tumor cytotoxicity assay (resazurin), B16-F10; assay type: cell-based
Description: B16-F10 (ATCC CRL-6475) a mouse melanoma was maintained in complete DMEM (DMEM supplemented with 10% FBS, 2 mM L-glutamine, 10 mM HEPES, and Pen/Strep at 100 IU/ml and 100 μg/ml, respectively). Cell lines were cultured at 37° C., 5% CO2 in a 95% humidified incubator. For tumor cytotoxicity assays HT-29, PC-3, or B16-F10 cells were seeded at 5×10^3, 5×10^3 or 1.25×10^3 cells/well cells were seeded at 5,000 cells/well in 90 μl complete media into a Corning 3904 black-walled, clear-bottom tissue culture plate and the plate were incubated overnight to allow cells to establish and enter log phase growth. […] Because living cells metabolize Resazurin, the fluorescence of the reduction product of Resazurin was measured using a Fusion microplate fluorometer (Packard Bioscience) with λex=535 nm and λem=590 nm filters. The plates were removed and resazurin fluorescence was measured using 530 nm excitation and 590 nm emission filters in a Fusion fluorimeter (Packard Instruments). […] The data were analyzed using Prism software (GraphPad Software). The data were normalized to the average of the cells treated with media only (100% cell growth) and EC50 values were determined using a standard sigmoidal dose response curve fitting algorithm.

[8] = test system: PC-3 (ATCC CRL-1435) human prostate adenocarcinoma; experiment: tumor cytotoxicity assay (resazurin), PC-3; assay type: cell-based; conditions: 48 h, read-out: EC50 for the PC3 assay
[9] = test system: Haemophilus influenzae A21515; experiment: antimicrobial resazurin growth assay, H. influenzae; assay type: cell-based; conditions: 37° C., 4 to 6 hours
Description: as §1, §2

[10] = test system: Streptococcus pneumoniae 49619; experiment: susceptibility assay by broth microdilution (NCCLS), S. pneumoniae; assay type: cell-based
Description: as §3

[11] = test system: Staphylococcus aureus (MSSA); experiment: susceptibility assay by broth microdilution (NCCLS), MSSA; assay type: cell-based; conditions: Staphyloccus aureus MSSA
Description: as §3

[12] = test system: vancomycin-sensitive Enterococcus faecalis; experiment: susceptibility assay by broth microdilution (NCCLS), E. faecalis; assay type: cell-based; conditions: Enterococcus faecalis VSE
Description: as §3

[13] = test system: Jurkat (ATCC TIB-152) human acute T cell leukemia; experiment: tumor cytotoxicity assay (resazurin), Jurkat; assay type: cell-based
Description: Jurkat (ATCC TIB-152) a human acute T cell leukemia was maintained in RPMI complete medium (RPMI 1640 medium supplemented with 10% FBS, 2 mM L-glutamine, 10 mM HEPES, 1 mM Na pyruvate, 1X NEAA, and Pen/Strep at 100 IU/ml and 100 μg/ml, respectively). Cell lines were cultured at 37° C., 5% CO2 in a 95% humidified incubator. For tumor cytotoxicity assays HT-29, PC-3, or B16-F10 cells were seeded at 5×10^3, 5×10^3 or 1.25×10^3 cells/well cells were seeded at 5,000 cells/well in 90 μl complete media into a Corning 3904 black-walled, clear-bottom tissue culture plate and the plate were incubated overnight to allow cells to establish and enter log phase growth. […] Because living cells metabolize Resazurin, the fluorescence of the reduction product of Resazurin was measured using a Fusion microplate fluorometer (Packard Bioscience) with λex=535 nm and λem=590 nm filters. The plates were removed and resazurin fluorescence was measured using 530 nm excitation and 590 nm emission filters in a Fusion fluorimeter (Packard Instruments). […] The data were analyzed using Prism software (GraphPad Software). The data were normalized to the average of the cells treated with media only (100% cell growth) and EC50 values were determined using a standard sigmoidal dose response curve fitting algorithm.

[14] = test system: Streptococcus pneumoniae ATCC 661100; experiment: antimicrobial resazurin growth assay, S. pneumoniae; assay type: cell-based; conditions: ATCC661100, 37° C., 4 to 6 hours
Description: as §1, §2

[15] = test system: Staphylococcus aureus (MRSA); experiment: susceptibility assay by broth microdilution (NCCLS), MRSA; assay type: cell-based; conditions: Staphyloccus aureus MRSA
Description: as §3

[16] = test system: Candida glabrata ATCC 200918; experiment: antimicrobial resazurin growth assay, C. glabrata; assay type: cell-based; conditions: Nakaseomyces glabratus, ATCC200918; Potato Dextrose medium
[17] = test system: Staphylococcus aureus, methicillin resistant (MRSA) ATCC 605000; experiment: antimicrobial resazurin growth assay, MRSA; assay type: cell-based; conditions: 37° C., 4 to 6 hours
Description: as §1, §2

Compound: CCC/C=C/CC1C/C=C/C=C(C)/C=C/C=C\C(O)CC(O)C(O)/C=C/C=C/C=C/C(=O)N1 (stereo not drawn) [compound of Formula (I)]
- EC50 ([1]; compound alone, read-out: EC50 in the HT-29 assay): 0.922 µg/mL and 2.03 µM
- EC50 ([1]; compound with interferon, read-out: EC50 in the HT-29 assay): 0.263 µg/mL and 580 nM
- EC50 ([1]; further evaluation (Table 2), read-out: HT-29 EC50): 3620 ± 2570 nM
- solubility (solubility (observation)): substantially insoluble
- IC50 [2]: > 4 µg/mL
- MIC (Candida albicans 90028): > 32 µg/mL
- MLC (Candida albicans 90028): >32 µg/mL
- IC50 [3]: 3 µg/mL and 6.6 µM
- MIC [4]: > 32 µg/mL
- MLC [4]: >32 µg/mL
- MLC [5]: >32 µg/mL
- MIC ([5]; Pseudomonas aeruginosa): > 32 µg/mL
- MIC (Escherichia coli imp; Escherichia coli): > 32 µg/mL
- MLC (Escherichia coli imp; Escherichia coli imp): >32 µg/mL
- IC50 [6]: > 4 µg/mL
- EC50 ([7]; further evaluation (Table 2), 48 hours, read-out: B16-F10 EC50): 2160 ± 870 nM
- EC50 ([7]; one set of evaluations, unit inferred, read-out: EC50 for the B16-F10 cells): 2160 ± 870 nM
- EC50 ([8]; compound alone): 1.29 µg/mL and 2.84 µM
- EC50 ([8]; compound with TNF-α): 0.988 µg/mL and 2.18 µM
- IC50 [9]: > 4 µg/mL
- MIC [10]: 32 µg/mL
- MLC [10]: >32 µg/mL
- MLC [11]: >32 µg/mL
- MIC ([11]; Staphylococcus aureus): > 32 µg/mL
- MIC [12]: 32 µg/mL
- MLC [12]: >32 µg/mL
- EC50 ([13]; further evaluation (Table 2), 48 hours, read-out: Jurkat EC50): 2330 ± 1110 nM
- EC50 ([13]; one set of evaluations, unit inferred, read-out: EC50 for the Jurkat cells): 2330 ± 1110 nM
- IC50 [14]: 4 µg/mL and 8.8 µM
- MLC [15]: >32 µg/mL
- MIC ([15]; Staphylococcus aureus): 12 µg/mL
- IC50 [16]: 3 µg/mL and 6.6 µM
- IC50 [17]: 1 µg/mL and 2.2 µM
